Data as given in patent publication US8796282B2, “Method of treating dermatological disorders” (Case Western Reserve University, priority 2007, dated 2014).

Experiments:
PEX16 gene expression = PEX16 gene expression in HaCaT keratinocytes treated with PPAR agonists, real-time PCR; format: cell-based, human; conditions: HaCaT cells, 1 μM and 5 μM in 0.1% DMSO, 48 hours
Experimental: (§1) HaCaT keratinocytes were treated with vehicle alone (0.1% DMSO) or with specific agonists (1 μM and 5 μM in 0.1% DMSO) of PPARγ-Ciglitazone (Cig), Rosiglitazone (Rosi), Pioglitazone (Pio) and Troglitazone (Tro), PPARα-WY-14363 and PPARδ-GW50516. After 48 hours, PEX16 gene expression was measured by real-time PCR.
(§2) We directly assessed the role of PPARγ in modulating peroxisomal gene expression by growing HaCat cells (human keratinocyte cell line) in the presence of PPAR agonists (1 μM and 5 μM concentrations in 0.1% DMSO) and monitoring gene expression by real-time PCR (FIG. 5b). The agonists tested were Ciglitazone (Cig), Rosiglitazone (Rosi), Pioglitazone (Pio) and Troglitazone (Tro) specific for PPARγ, WY-14363 specific for PPARα and GW50516 specific for PPARδ. […] We also examined whether expression of the PEX3 gene is modulated by the PPAR agonist Pioglitazone (Pio) in cultured outer root sheath keratinocytes. Cells were grown in the presence or absence of Pio and PEX3 gene expression was monitored by real-time PCR.
Quantitative real-time RT-PCR. […] The target gene expression in LPP and control samples was quantitated by the comparative CT method as described in the ABI Prism 7700 Sequence Detection System manual (PE Biosystems). […]

PEX3 gene expression = PEX3 gene expression in cultured outer root sheath (ORS) keratinocytes treated with PPAR agonists, real-time PCR; format: cell-based, human; conditions: for effect on PEX3 gene expression: cultured outer root sheath keratinocytes
Experimental: as §1, §2
(§3) Quantitative real-time RT-PCR. FAM labeled PCR primers and TaqMan hydrolysis probes for all target genes and 18S rRNA were purchased from Perkin-Elmer Applied Biosystems (Foster City, Calif.). Real-time PCR was performed on an ABI Prism 7700 Sequence Detection System (PE Biosystems) according to the recommendation of the manufacturer. The target gene expression in LPP and control samples was quantitated by the comparative CT method as described in the ABI Prism 7700 Sequence Detection System manual (PE Biosystems).
Effect of PPARg agonists and antagonists on PEXgenes. Human Hair Follicle Outer Root Sheath Cells (ORS cells) were obtained from ScienCell™ (San Diego, Calif.) and grown in Mesenchymal Stem Cell Medium (MSCM) consisting of 500 ml of basal medium, 25 ml of fetal bovine serum, 5 ml of mesenchymal stem cell growth supplement and 5 ml of penicillin/streptomycin solution. HaCaT cells were cultured in Dulbecco's modified Eagle's medium containing 10% fetal bovine serum under 5% CO2 at 37° C. […]

[1] = test system: PEX genes (PEX3, PEX16, PMP22); experiment: PEX (peroxisomal) gene expression in a human keratocyte cell line / cultured human keratinocytes exposed to PPARγ agonists; format: cell-based; conditions: for expression of peroxisomal genes (PEX3, PEX16, PMP22): qualitative statement, cultured human keratinocytes
Experimental: as §3
Effect of PPARg agonists and antagonists on PEXgenes. Human Hair Follicle Outer Root Sheath Cells (ORS cells) were obtained from ScienCell™ (San Diego, Calif.) and grown in Mesenchymal Stem Cell Medium (MSCM) consisting of 500 ml of basal medium, 25 ml of fetal bovine serum, 5 ml of mesenchymal stem cell growth supplement and 5 ml of penicillin/streptomycin solution. HaCaT cells were cultured in Dulbecco's modified Eagle's medium containing 10% fetal bovine serum under 5% CO2 at 37° C. The different PPAR agonists were added in triplicate in dimethylsulfoxide (<0.1% by volume) for 48 hours to evaluate their effects on PEX gene expression by real-time PCR.

Patients with LLP = experiment: Treatment of patients with lichen planopilaris with low dose Actos; format: in vivo, human; conditions: for inflammatory cells in scalp biopsy histology: one patient, H&E
Experimental: Patients were treated with Actos (Pioglitazone), a PPARγ agonist that is currently used to treat diabetes. Patients with LLP were given a low dose of Actos, i.e., less than about 15 mg/daily. […] The histology of scalp biopsy of one of the patients before, after one year of treatment, and after two years of treatment are shown in FIGS. 18-20. […] Therefore, PPAR agonist is effective in reducing symptoms.

In the case of `Cc1cccc(Nc2cc(Cl)nc(SCC(=O)O)n2)c1C` [WY-14363], the “effect on PEX 16 gene expression” value (PEX16 gene expression) is reported as “minimal effect” and the “effect on PEX3 gene expression” value (PEX3 gene expression) is reported as “minimal effect”.

In the case of `CC1(COc2ccc(CC3SC(=O)NC3=O)cc2)CCCCC1` (stereo not shown) [Ciglitazone, 5-[4-[(1-methylcyclohexyl)methoxy]benzyl]thiazolidine-2,4-dione], the “expression of peroxisomal genes (PEX3, PEX16, PMP22)” value (“expression of peroxisomal genes” for short) [1] is reported as “induce the expression”.

For `CCc1ccc(CCOc2ccc(CC3SC(=O)NC3=O)cc2)nc1` (stereo not shown) [Pioglitazone, 5-[4-[2-(5-ethylpyridin-2-yl)ethoxyl]benzyl]thiazolidine-2,4-dione], the “increase in PEX3 gene expression” value (PEX3 gene expression; outer root sheath keratinocytes, 1 μM, compared to vehicle alone (0.1% DMSO)) was 4 fold, the “expression of peroxisomal genes” value [1] was “induce the expression” and the “itching, burning and pain associated with lichen planopilaries” value (Patients with LLP; LLP patients, less than about 15 mg/daily, patient-reported) was “significant decrease”. The “inflammatory cells in scalp biopsy histology” value (Patients with LLP; after 1 year of treatment) was “Reduction is already seen” and the “inflammatory cells in scalp biopsy histology” value (Patients with LLP; at two years of treatment) was “complete clearing of inflammatory cells”.

For `Cc1c(C)c2c(c(C)c1O)CCC(C)(COc1ccc(CC3SC(=O)NC3=O)cc1)O2` (single isomer, unassigned; (+)) [Troglitazone, (+)-5[[4-[(3,4-dihydro-6-hydroxy-2,5,7,8-tetramethyl-2H-1-benzopyran-2-yl)methoxy]phenyl]methyl]-2,4-thiazolidinedione], the “expression of peroxisomal genes” value [1] was “induce the expression”.

With `Cc1cc(SCc2sc(-c3ccc(C(F)(F)F)cc3)nc2C)ccc1OCC(=O)O` [GW50516] the “effect on PEX 16 gene expression” value (PEX16 gene expression) was “minimal effect” and the “effect on PEX3 gene expression” value (PEX3 gene expression) was “minimal effect”.

With `CN(CCOc1ccc(CC2SC(=O)NC2=O)cc1)c1ccccn1` (stereo not shown) [Rosiglitazone, 5-[4-[2-(N-methyl-N-(2-pyridyl)amino]ethoxy]benzyl]thiazolidine-2,4-dione] the “increase in PEX gene expression” value ([1]; human keratocyte cell line) was “three-fold increase” and the “expression of peroxisomal genes” value [1] was “induces the expression”.
